Article doi:10.1101/637801v3 (biorxiv, 2019)

Legend:
[1] = target: rPtxS1 (recombinant pertussis toxin S1 subunit, wild type) (Bordetella pertussis, UniProt P04977); experiment: fluorometric NAD+ consumption assay; assay type: biochemical
[2] = target: pertussis AB5 holotoxin (PtxS1-S5) (Bordetella pertussis, UniProt P04977); experiment: cell-based
Chain of pertussis AB5 holotoxin (PtxS1-S5) (P04977 whole entry, looked up): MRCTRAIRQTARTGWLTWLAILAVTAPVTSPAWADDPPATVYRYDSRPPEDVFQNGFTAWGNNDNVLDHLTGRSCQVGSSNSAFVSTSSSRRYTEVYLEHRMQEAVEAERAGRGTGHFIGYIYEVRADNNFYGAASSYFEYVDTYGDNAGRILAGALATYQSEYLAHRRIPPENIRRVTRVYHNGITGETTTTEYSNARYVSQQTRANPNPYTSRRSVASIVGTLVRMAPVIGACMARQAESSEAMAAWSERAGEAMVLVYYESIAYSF

Chain of rPtxS1 (recombinant pertussis toxin S1 subunit, wild type) (P04977 35-221 limits assumed): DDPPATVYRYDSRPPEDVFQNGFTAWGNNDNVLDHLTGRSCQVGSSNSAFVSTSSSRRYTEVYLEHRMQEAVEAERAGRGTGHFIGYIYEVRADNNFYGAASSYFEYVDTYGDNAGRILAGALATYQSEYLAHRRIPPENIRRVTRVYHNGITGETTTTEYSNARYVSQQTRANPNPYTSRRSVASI

Structure (SMILES) | IC50 [1] | IC50 [2]
Sc1nc2c[nH]c(S)nc-2n1 [NSC29193, purine-2,8-dithiol] | 6.8 µM | –
O=C(/C=C/c1cccnc1)/C=C/c1cccnc1 [NSC149286] | 20 µM | –
O=[N+]([O-])c1ccc(Sc2cccc[n+]2[O-])c2nonc12 [NSC228155, 7-nitro-4-(1-oxidopyridin-1-ium-2-yl)sulfanyl-2,1,3-benzoxadiazole] | 3 µM | 2.35 µM
